Experimental data as given in patent US7294715B2, “Aporphine and oxoaporphine compounds and pharmaceutical use thereof” (Lotus Pharmaceutical Co., Ltd., priority 2003, dated 2007).
Marks after values point to notes of the source that are not given here.

Key:
[1] = system: eNOS; test: Western blot analysis for eNOS protein in ischemia-reperfusion rat heart; type: in vivo; details: ischemia 25 min, reperfusion 2 h, 1.5 mg/kg at 5 min prior to reperfusion, P<0.05 vs vehicle
Description: To elucidate the effects of the test compounds on the infarct size caused by regional myocardial ischemia and reperfusion, all animals were randomized into 8 study groups. The first group (Sham) comprised of animals not subjected to regional myocardial ischemia (25 min) followed by reperfusion (2 h) and treated with vehicle (1 ml/kg) 5 minutes prior to the onset of reperfusion. The second group of animals were subjected to regional myocardial ischemia (25 min) followed by reperfusion (2 h) and were treated with vehicle (saline, 1 ml/kg). […]
Hearts were pulverized at −80° C. using liquid nitrogen and a stainless steel pestle and mortar. […] Total protein concentrations were determined using the Bradford method (Bio-Rad, UK). […] Signals were detected using the enhanced chemiluminescence (ECL™) detection system (Cell Signaling Technology, U.S.A.) and autoradiographic film. For quantification of protein expression all blots were reprobed for muscle α-actin expression using 1/2000 dilution of a mouse anti-human actin (muscle antibody (Serotec), followed by incubation with a goat anti-mouse HRP linked secondary antibody ( 1/2000 dilution) (DakoCytomation, Denmark). Densitometry analysis was performed on scanned images (Hewlett Packard Scanjet) and analyzed using Scion Image (Scion Corp, National Institutes of Health, Bethesda, Md.).

[2] = system: MCAO rats; test: Middle cerebral artery occlusion (MCAO) cerebral ischemia lesions in rats; type: in vivo, rat
Source text: The same effects of preventing the ischemia-reperfusion damages with aporphine and oxoaporphine compounds also found in the other organs, such as brain. After Compound 16 or Compound 21, which is a compound of Formula B (where R1, R2, R5, R6 are OMe, R3, R4, R7 are H) was administrated to male Sprague Dawley rats, the effects of test compounds on the artery occlusive cerebral ischemia in the rats were monitored. First, permanent brain ischemia was induced by middle cerebral artery occlusion (MCAO) in the rats. At 0, 6, 24, 48, and 54 hours after the formation of middle cerebral artery occlusion (MCAO), Group I (i.e., the control group) animals were given the solvent (100% DMSO) (1 ml/kg, i.p.); Group II (i.e., the control group) animals were given the distilled water (D.W.) (1 ml/kg, i.p.);Group III animals (NCM-121) were given Compound 16 (1.5 mg/kg, i.p.); Group IV animals (NCM-124) were given Compound 21 (1.7 mg/kg, i.p); Group V animals were given MK-801 (0.3 mg/kg, i.p.), an antagonist of the N-methyl-D-aspartic acid (NMDA) receptor. There were ten rats in each group. Four days after the formation of MCAO, all the rats were sacrificed. Brain sections were made and stained with 2% cresol purple. The areas and volumes of cerebral ischemia lesions in each section were recorded.

[3] = system: ischemia-reperfusion rabbit; test: Ischemia-reperfusion rabbit mortality; type: in vivo
[4] = Safety at multiples of the effective dose in rabbits; details: 10-100 times the effective dose

COc1cc2c(cc1OC)-c1c(OC)c(OC)cc3c1C(C2)N(CCOc1ccccc1OC)CC3 (centres unmarked) [Compound 16, N-[2-(2-methoxyphenoxyl)]ethylnorglaucine]
reduction in eNOS protein expression caused by ischemia and reperfusion [1]: significantly reduced | Infarcted Volume (X ± SEM mm^3) ([2]; IP 1.5 mg/kg × 6, N=10, four days after MCAO, vehicle 100% DMSO 154.17 ± 16.69): 60.14 ± 24.49* mm^3 | % Decrease in total volume of ischemic lesions ([2]; IP 1.5 mg/kg × 6, vs Group I vehicle (100% DMSO)): 60.99% | effects in reducing the areas and volumes of cerebral ischemia lesions as compared with MK-801 ([2]; comparison in words): more significant effects | Died at ischemia period ([3]; 0.25 mg/kg, total 3, control 0 of 10): 0 | Died at reperfusion period ([3]; 0.25 mg/kg, total 3, control 3 of 10): 1 | Mortality (%) ([3]; 0.25 mg/kg, total 3, control 30): 33.3% | Died at ischemia period ([3]; 2.5 mg/kg, total 6, control 0 of 10): 0 | Died at reperfusion period ([3]; 2.5 mg/kg, total 6, control 3 of 10): 0 | Mortality (%) ([3]; 2.5 mg/kg, total 6, control 30): 0% | animal deaths [4]: no animals died
